Legend:
[1] = AUCinf in rat at 10 mg/kg, po; format: ADME, organism-based; set-up: route oral, time infinity, dose 10 mg/kg; conditions: in vivo
[2] = Metabolic stability in human liver S9 fraction assessed as compound remaining measured after 1 hr; format: ADME, subcellular; conditions: read-out: Stability
[3] = Clearance in rat at 2 mg/kg; format: ADME, organism-based; conditions: in vivo
[4] = Metabolic stability in rat liver S9 fraction assessed as compound remaining measured after 1 hr; format: ADME, subcellular; conditions: read-out: Stability

AUC(0-inf) [1] | remaining at 1 h [2] | clearance [3] | remaining at 1 h [4] | Compound
10.8 µM·h | 93% | 78 mL/min/kg | 98% | CC(C)(C)Nc1ncc(C(N)=O)c(N[C@@H]2CCC[C@H](O)C2)n1
 | 91% |  | 47% | CO[C@H]1CCC[C@@H](Nc2nc(N[C@H]3CC[C@H](OC)CC3)ncc2C(N)=O)C1
 | 77% |  | 1% | NC(=O)c1cnc(NC2CCCCC2)nc1N[C@@H]1CCC[C@H](O)C1
2.25 µM·h | 96% |  | 75% | NC(=O)c1cnc(NC23CC(C2)C3)nc1N[C@@H]1CCC[C@H](O)C1
 | 61% |  | 1% | CO[C@H]1CC[C@H](Nc2ncc(C(N)=O)c(N[C@@H]3CCCC(F)(F)C3)n2)CC1 (mixture of isomers)
35.5 µM·h |  | 11 mL/min/kg |  | C[C@@H]1CC[C@@H](Nc2nc(NC(C)(C)C)ncc2C(N)=O)C[C@H]1O [CC-90001]

Source: ChEMBL document CHEMBL4840378 (J Med Chem, 2021)
